Values of other authors, collected in publication PMC9010257 (Clinical and Translational Science, 2022).

Test system: TNAP

Row | Compound | inhibitory activity | specificity for TNAP
1 | Cn1c(=O)c2[nH]cnc2n(C)c1=O [theophylline] | weak inhibitory activity | not specific for TNAP
2 | c1ccc([C@H]2CN3CCSC3=N2)cc1 [levamisole] | weak inhibitory activity | not specific for TNAP
